What all share (assay type): in vivo, rat
One assay has as its system high-fat fed rats. The assay is described as follows: Example 34: insulin resistance in rats fed a high-fat diet. As to the method:
On the day of testing, food will be removed 10 hours prior to administration of a 2 g/kg glucose solution via oral gavage. Glucose levels will be determined on whole blood samples (Lifescan, Milpitas, CA, U.S.A.). Serum insulin levels will be determined using a rat/mouse ELISA kit (Linco Research, St. Charles, MO, U.S.A.). Fasting data will be used to determine homeostatic model assessment (HOMA)-calculated as fasting insulin (mU/mL)×fasting glucose (mM)/22.5.
To further assess insulin sensitivity, the phosphorylation state of the insulin signaling protein Akt in skeletal muscle will be measured 1) following a 10 hour fast, and 2) 1 hour after receiving an oral glucose load. It is anticipated that in response to glucose ingestion, Akt phosphorylation will increase in skeletal muscle of standard chow-fed controls but will remain essentially unchanged in high-fat fed rats, confirming the presence of insulin resistance at the level of insulin signaling.

Assay [1] has as its system Sprague-Dawley rats. The assay is described as follows: Example 38: acute renal injury caused by unilateral ureteral obstruction (UUO). The procedure: Sprague-Dawley rats will undergo unilateral ureteral ligation with a 4-0 silk suture through a midline abdominal incision under sterile conditions. Ureteral obstruction will be carried out by ligating the lower end of the left ureter, just above the ureterovesical junction. Peptide conjugates (1 mg/kg or 3 mg/kg; n=16); aromatic-cationic peptides (an equivalent molar dose of aromatic-cationic peptide based on the concentration of the aromatic-cationic peptide administered in the peptide conjugate treatment group); SPN10(s) (an equivalent molar dose of SPN10 based on the concentration of SPN10 administered in the peptide conjugate treatment group); SPN10(s) in combination with aromatic-cationic peptides (e.g., an equivalent molar dose of SPN10 based on the concentration of SPN10 administered in the peptide conjugate treatment group and an equivalent molar dose of aromatic-cationic peptide based on the concentration of aromatic-cationic peptide administered in the peptide conjugate treatment group); or control vehicle (n=16) will be administered intraperitoneally, one day prior to UUO and continuing for 14 days following UUO.
Renal Histology: Trichrome sections of paraffin embedded specimens will be examined by a board-certified pathologist (SVS, renal pathology specialist), and fibrosis scored on a scale of 0—+++.
Immunohistochemical Analysis: Immunohistochemical staining for macrophages will be carried out using a monoclonal antibody to ED-1 as previously described. Macrophages will be counted in 10 high-power fields (×400) by two independent investigators in a blinded fashion. Apoptosis will be measured by TUNEL assay as described in Example 37. The presence of fibroblasts will be examined using immunohistochemistry, as described above, using the DAKO #S100-A4 antibody (1:100 dilution). Antigen will be retrieved by incubating cells with Proteinase K for 20 minutes. The remaining immunoperoxidase protocol will be carried out according to routine procedures.
It is expected that S100-A4 staining will be present in spindle-shaped interstitial cells and round, inflammatory cells. Only spindle-shaped cells will be quantified. Staining for 8-OH dG will be done using Proteinase K for antigen retrieval and an antibody provided by the Japan Institute Control of Aging at a dilution of 1:200-1:500.
Polymerase Chain Reaction Analysis: Renal expression of heme oxygenase-1 (HO-1) will be measured by RT-PCR according to the following: Rat kidneys will be harvested and stored at −80° C. until use. Total RNA will be extracted using the Trizol (R)-Chloroform extraction procedure, and mRNA will be purified using the Oligotex mRNA extraction kit (Qiagen, Valencia, California, U.S.A.) according to manufacturer instructions. mRNA concentration and purity will be determined by measuring absorbance at 260 nm. RT-PCR will be performed using Qiagen One-step PCR kit (Qiagen, Valencia, California, U.S.A.) and an automated thermal cycler (ThermoHybrid, PX2). Thermal cycling will be carried out as follows: initial activation step for 15 minutes at 95° C. followed by 35 cycles of denaturation for 45 seconds at 94° C., annealing for 30 seconds at 60° C., extension for 60 seconds at 72° C. Amplification products will be separated on a 2% agarose gel electrophoresis, visualized by ethidium bromide staining, and quantified using Image J densitometric analysis software. GAPDH will be used as an internal control.

Assay [2] relates to Sprague-Dawley rats. In words: Example 41: contrast-induced nephropathy in glycerol-induced rhabdomyolysis. The note with it: 25% glycerin + diatrizoate. As to the method: Animal model: This Example will utilize animals subjected to glycerol-induced rhabdomyolysis, as previously described. Parvez, et al., Invest. Radiol., 24:698-702 (1989); Duan, et al., Acta Radiologica, 41:503-507(2000). Sprague-Dawley rats with body weight of 300-400 g will be dehydrated for 24 hours followed by intramuscular (i.m.) injection of 25% glycerol solution (v/v) at the dose of 10 mL/kg. Twenty-four hours later, the animals will be administered a contrast dye with peptide conjugates, aromatic-cationic peptides, SPN10(s) with or without aromatic-cationic peptides, or control vehicle according to the following: 1) 25% glycerin+Saline+PBS (n=6), 2) 25% glycerin+diatrizoate+PBS (n=7), 3) 25% glycerin+diatrizoate+peptide conjugates (n=7), 4) 25% glycerin+diatrizoate+aromatic-cationic peptides (n=7), 5) 25% glycerin+diatrizoate+SPN10(s), and 6) 25% glycerin+diatrizoate+SPN10(s)+aromatic-cationic peptides. […] Samples will be analyzed by students t-test and differences will be considered significant at p<0.05.
Renal function: Renal function will be assessed by determining serum and urinary creatinine at baseline, 24 hours after dehydration, and 48 hours following contrast dye administration. Creatinine clearance will be calculated based on serum and urinary creatinine levels and urinary volume. Urinary albumin concentration will be determined using a competition ELISA assay.

Structures are written as SMILES. Residues, ends and D or L forms follow the SMILES beside them.

Regarding `N=C(N)NCCC[C@H](NC(=O)[C@@H](N)Cc1c[nH]c2ccccc12)C(=O)N[C@@H](Cc1c[nH]c2ccccc12)C(=O)N[C@@H](CCCCN)C(N)=O` [SPN10, H-L-Trp-L-Arg-L-Trp-L-Lys-NH2] (H-WRWK-NH2), the “blood glucose and insulin responses to the oral glucose challenge” value with high-fat fed rats (2 g/kg glucose, six weeks high-fat diet) is “normalize blood glucose and insulin responses”. Also, in the assay on high-fat fed rats (rat, in vivo), the “Akt phosphorylation in skeletal muscle in response to glucose ingestion” value is listed as “increase Akt phosphorylation” and the “development of insulin resistance (HOMA)” value is reported as “suppress the development of insulin resistance”. The “tubular cell proliferation at the 1 mg/kg dose” value in the assay with Sprague-Dawley rats [1] (1 mg/kg) is reported as “decreased”. Moreover, in the assay with Sprague-Dawley rats [1] (1 mg/kg (conjugate) or equivalent molar dose), the “fibroblast infiltration in obstructed kidneys (FSP-1)” value was “significantly decrease the amount of fibroblast infiltration”. In the assay on Sprague-Dawley rats [1] (1 mg/kg (conjugate) or equivalent molar dose, 2 weeks of UUO), the “tubular apoptosis in obstructed kidneys” value is reported as “significantly decrease tubular apoptosis”. In the assay on Sprague-Dawley rats [1] (1 mg/kg or 3 mg/kg (conjugate) or equivalent molar dose), the “macrophage infiltration in obstructed kidneys” value is “significantly decrease macrophage infiltration”. Besides, the “tubular cell proliferation at the 3 mg/kg dose” value with Sprague-Dawley rats [1] (3 mg/kg) is given as “further decreased”. Moreover, in the assay on Sprague-Dawley rats [1] (14 days UUO), the “trichrome staining (fibrosis score), cortex of obstructed kidney” value is recorded as 0-trace and the “trichrome staining (fibrosis score), medulla of obstructed kidney” value is given as “tr—1+”. Moreover, the “HO-1 expression in the obstructed kidney” value in the assay on Sprague-Dawley rats [1] (RT-PCR) is given as “decrease HO-1 expression”. For the same compound, in the assay with Sprague-Dawley rats [1] (rat, in vivo), the medullary fibrosis result is listed as “decrease medullary fibrosis”, the “number of 8-OH dG positive cells” value was “significantly reduced” and the “renal tubular proliferation in obstructed kidneys (PCNA)” value is listed as “significant decrease in renal tubular proliferation”. In the assay on Sprague-Dawley rats [2], the “albuminuria after contrast dye” value is “attenuate or prevent albuminuria”; the “creatinine clearance after contrast dye” value is on record as “attenuate or prevent reduced creatinine clearance”; the “loss of proximal tubule brush border, glomerular swelling and tubular protein cast deposition (PAS)” value is recorded as “attenuate or prevent these effects”.

Values taken from patent US20240108740A1, “THERAPEUTIC COMPOSITIONS INCLUDING SPN10 AND USES THEREOF” (Stealth BioTherapeutics Inc., priority 2022, published 2024).
